Laboratory results: US20200278355A1, “CONJUGATED PROTEINS AND USES THEREOF” (THE SCRIPPS RESEARCH INSTITUTE, priority 2017, published 2020)

What was measured:
[1] = target: T1, HA-NR0B1-C274V binding to FLAG-SNW1 (Homo sapiens, UniProt P51843, C274V); assay: Modified in vitro binding assay: HA-NR0B1-C274V from compound-treated HEK293T cells binding to FLAG-SNW1; assay type: cell-based; conditions: HEK293T cells expressing HA-NR0B1-C274V treated with compound, lysate binding to FLAG-SNW1
T1 construct: expressed in transfected cells; host or cells: HEK293T (pRK5-based plasmids)
T1 sequence (P51843 whole entry C274V): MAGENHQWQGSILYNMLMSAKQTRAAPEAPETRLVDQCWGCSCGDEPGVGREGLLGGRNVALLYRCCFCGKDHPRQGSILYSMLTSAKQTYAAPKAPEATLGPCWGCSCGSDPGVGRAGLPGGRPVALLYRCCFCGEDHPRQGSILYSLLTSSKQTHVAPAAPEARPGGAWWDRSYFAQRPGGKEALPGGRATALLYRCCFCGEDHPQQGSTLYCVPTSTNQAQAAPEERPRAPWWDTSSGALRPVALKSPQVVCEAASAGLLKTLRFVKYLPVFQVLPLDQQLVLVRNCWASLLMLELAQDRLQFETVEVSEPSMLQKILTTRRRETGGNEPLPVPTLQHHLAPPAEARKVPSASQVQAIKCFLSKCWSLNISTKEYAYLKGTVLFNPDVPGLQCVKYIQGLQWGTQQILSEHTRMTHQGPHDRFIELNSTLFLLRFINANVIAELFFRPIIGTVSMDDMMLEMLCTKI
Method: FIG. 5A-FIG. 5G show covalent ligand targeting C274 disrupts NR0B1 protein complexes. […] Percentage of NR0B1 bound to SNW1 was normalized to vehicle (DMSO). A hit compound BPK-26 is marked in red. […] HEK293T cells expressing the indicated proteins were treated with BPK-29 or vehicle (3 h) prior to treatment with BPK-29yne (30 min). Immunoprecipiated proteins were analyzed by in-gel fluorescence-scanning and immunoblotting. […] HEK293T cells expressing HA-NR0B1-WT or HA-NR0B1-C274V proteins were treated with DMSO or BPK-29, after which lysates were generated and evaluated for binding to FLAG-SNW1, as shown in (B).
(§1) FIG. 11A-FIG. 11F illustrate a covalent ligand targeting Cys274 disrupts NR0B1 protein complexes. […] See also FIG. 5C. […] Top: Structures of screening hit BPK-28 and synthesized derivatives. […] FLAG-immunoprecipitates were prepared from each lysate and subjected to proteolytic digestion, whereupon tryptic peptides harboring C274 were analyzed by LC-MS/MS. […] Immunoprecipitates were analyzed by in-gel fluorescence-scanning to assess BPK-29yne labeling or by immunoblot for FLAG-NR0B1. […] In a modified in vitro binding assay shown in FIG. 5B, HEK293T cells expressing HA-NR0B1-WT or an HA-NR0B1-C274V mutant were treated with DMSO or BPK-26 (20 μM, 3 h), after which lysates were and interaction with FLAG-SNW1 assessed. […]

C274 of NR0B1 = target: T2, C274 of NR0B1 (Homo sapiens, UniProt P51843); assay: Site of labeling by LC-MS/MS of FLAG-NR0B1 tryptic peptides; assay type: binding; conditions: BPK-26 100 μM, 3 h in lysate, BPK-29 50 μM, 3 h in HEK293T cells
T2 construct: expressed in transfected cells; host or cells: HEK-293T, transient, pRK5-based vector
T2 sequence (P51843 whole entry): as the sequence (P51843 whole entry C274V) above, with V274C counted along it
Method: as §1, with “derivatives. […] The In vitro-binding assay was performed as described in FIG. 5B using compounds at a concentration of 50 μM. Bottom: Data represent mean values±SD normalized to DMSO control. n=4/group. […] Top: Compounds were tested as described in FIG. 5B. Bottom: Graph of concentration-dependent inhibition of NR0B1-SNW1 interactions by the indicated compounds. Percent binding was normalized to vehicle (DMSO). Data represent mean values±SD (n=2-5/group). FIG. 11D and FIG. 11E show NR0B1 ligands BPK-26 (D) and BPK-29 (E) covalently modify C274 in NR0B1. Lysate generate from HEK293T cell expressing FLAG-NR0B1 was treated with DMSO or BPK-26 (100 μM, 3 h, D).” for “derivatives.”

Structure (SMILES)	sensitivity of the C274V-NR0B1 interaction with SNW1 to ligand [1]	covalent modification of C274 of NR0B1 (C274 of NR0B1)
O=C(c1ccc(N2CCOCC2)cc1)N1CCCC(N(Cc2ccccc2)C(=O)CCl)CC1 (stereo not shown) [BPK-29, N-benzyl-2-chloro-N-(1-(4-morpholinobenzoyl)azepan-4-yl)acetamide]	not sensitive	covalently modified C274 of NR0B1
O=C(CCl)N(Cc1cccc(Cl)c1F)c1ccc(Cl)nc1 [BPK-26, 2-chloro-N-(3-chloro-2-fluorobenzyl)-N-(6-chloropyridin-3-yl)acetamide]	not sensitive	covalently modified C274 of NR0B1
